Experimental data from patent US11207301B2, “Sphingosine 1 phosphate receptor agonists for neuroprotection” (RECEPTOS LLC, priority 2017, dated 2021).

Tested on: relapsing multiple sclerosis (RMS) patients
Assay: Brain volume loss in phase 3 RMS studies SUNBEAM and RADIANCE Part B vs interferon beta-1a
Assay type: in vivo, human
Source text: As mentioned above, ozanimod is in clinical development for treatment of relapsing multiple sclerosis (RMS). Brain volume loss (BVL) correlates with and predicts disability and is thought to be a marker of long-term disease progression and cognitive impairment. Accordingly, reducing BVL is an important treatment goal. In this example, BVL results are reported from two similarly-designed phase 3 RMS studies.
SUNBEAM (N=1346) and RADIANCE Part B (N=1320) were randomised, double-blind, double-dummy, active-controlled, parallel-group studies of the efficacy (primary outcome annualised relapse rate) and safety of once-daily ozanimod 1 mg or 0.5 mg vs intramuscular interferon beta-1a (IFNβ-1a) 30 μg for ≥12 months (m) (SUNBEAM) or 24 m (RADIANCE). BVL was evaluated using the Jacobian integration method to assess changes in normalised whole brain, cortical grey matter, and thalamic volumes. Rank analysis of covariance was performed with treatment effects reported as percent reductions in median percent BVL from baseline.

[1] = RADIANCE (24 m), 1 mg once daily, p<0.0001
[2] = SUNBEAM (12 m), 1 mg once daily, p<0.0001

## CC(C)Oc1ccc(-c2nc(-c3cccc4c3CC[C@@H]4NCCO)no2)cc1C#N [Ozanimod]
RADIANCE (24 m), 0.5 mg once daily, p<0.0001
  slowing of cortical grey matter loss with respect to IFN: 55.1%
RADIANCE (24 m), 0.5 mg once daily, p=0.0001
  slowing of whole BVL vs IFN: 24.5%
RADIANCE (24 m), 0.5 mg once daily, p=0.0008
  slowing of thalamic BVL vs IFN: 30.1%
[1]
  slowing of cortical grey matter loss with respect to IFN: 58.3%
  slowing of thalamic BVL vs IFN: 31.9%
  slowing of whole BVL vs IFN: 26.6%
SUNBEAM (12 m), 0.5 mg once daily, p<0.0001
  slowing of cortical grey matter loss with respect to IFN: 61.4%
SUNBEAM (12 m), 0.5 mg once daily, p=0.0001
  slowing of thalamic BVL vs IFN: 34.3%
SUNBEAM (12 m), 0.5 mg once daily, p=0.0615
  slowing of whole BVL vs IFN: 12.3%
[2]
  slowing of cortical grey matter loss with respect to IFN: 83.8%
  slowing of thalamic BVL vs IFN: 38.5%
  slowing of whole BVL vs IFN: 32.5%
